# Results reported in PMC12217481, “Structure and mechanism of taniborbactam inhibition of the cefepime-hydrolyzing, partial R2-loop deletion Pseudomonas-derived cephalosporinase variant PDC-88” (Antimicrobial Agents and Chemotherapy, 2025).
# Like-named read-outs stand apart in the source and are kept apart here.
# Key:
# PDC-88 [1] = molecular target: T1, PDC-88 (Pseudomonas aeruginosa, UniProt P24735, DEL316-317/G27D/G391A/T105A/V205L/V356I); assay: Timed ESI-MS of acyl-enzyme formation, PDC-88; assay type: biochemical; details: for acyl-enzyme complex formation and deacylation: timed ESI-MS, 1 to 30 min (ATM to 60 min)
# T1 construct: NdeI 5′-[…]-3ʹ and BamHI 5ʹ-[…]-3ʹ; His tag removed) (N); made in house; host or cells: E. coli BL21-CodonPlus (DE3)-RP, pET24a(+)
# Protocol: (§1) Timed ESI-MS experiments allow tracking of the reaction over time and determination of product modification, enabling the elucidation of mechanistic detail. Time courses were collected for both PDC-3 and PDC-88 with FEP (Fig. 4), CAZ (Fig. S1), TOL (Fig. S2), and ATM (Fig. S3). Substrate modification (here, loss of the R2 group) was determined based on differences between masses of apo and acyl-enzyme peaks (Fig. S4). […] Based on the differences in mass between the apo enzyme peaks, the acyl-enzyme peaks, and the molecular masses of each substrate, the mass of the adducts was determined and used to predict any portion of the substrate molecule that might be lost during the reaction (Fig. S4). As expected ([26][–][28]), all three cephalosporin antibiotics (FEP, CAZ, and TOL) lost their R2 groups during the reaction, while ATM (the sole monobactam) maintained its initial mass.
# (§2) Five micrograms of PDC-3 or PDC-88 was incubated at the indicated molar ratio (1:2 to 1:100 PDC:β-lactam) in a total volume of 20 µL in 1× PBS at pH 7.4 at room temperature for the duration of the indicated time points. Reactions were quenched with the addition of 10 µL acetonitrile and added to 1 mL of 0.1% formic acid in water.
# (§3) Data were collected using a Waters Synapt G2-Si quadrupole time-of-flight (Q-TOF) mass spectrometer and Waters Acquity UPLC BEH C18 1.7 µm column (2.1 by 100 mm). MassLynx V4.1 was used to deconvolute protein peaks. The tune settings for each sample were as follows: capillary voltage of 3.5 kV, sampling cone voltage of 35 V, source offset of 35 V, source temperature of 100°C, desolvation temperature of 500°C, cone gas flow rate of 100 L/h, desolvation gas flow rate of 800 L/h, and nebulizer bar at 6.0. Mobile phase A was 0.1% formic acid in water. Mobile phase B was 0.1% formic acid in acetonitrile. The mass accuracy of this system is ±5 Da.
# PDC-3 = molecular target: T2, PDC-3 (Pseudomonas aeruginosa, UniProt P24735, T105A); assay: Timed ESI-MS of acyl-enzyme formation, PDC-3; assay type: biochemical; details: for acyl-enzyme complex formation and deacylation: timed ESI-MS, 1 to 30 min (ATM to 60 min)
# T2 construct: The PDC-3 expression construct was created in a similar manner but starting with a previously described pBC SK(−) vector; made in house; host or cells: E. coli BL21-CodonPlus (DE3)-RP, pET24a(+)
# Protocol: as §1, §2, §3
# NDM-1 = test system: NDM-1; set-up: method as in PMID 22005056; details: cited from earlier work
# [2] = test system: E. coli DH10B/pTU628 (PDC-91); assay: Broth microdilution MIC, isogenic E. coli expressing PDC-91; assay type: cell-based; details: Escherichia coli
# Protocol: (§4) Genetic constructs used for minimum inhibitory concentration (MIC) testing were designed by Venatorx Pharmaceuticals and codon-optimized for use in E. coli and synthesized by Twist Bioscience as described previously ([9]). […] DH10B cells expressing an empty pET24a(+) vector (Novagen) were also grown, and the plasmid purified. Both pCR4-TOPO-PDC-88 and empty pET24a(+) were cut with BamHI and NdeI, the digests run on low-melting point agarose gels, and the bands of interest excised and ligated to yield a PDC-88 expressing pET24a(+) construct with the His tag removed. The PDC-3 expression construct was created in a similar manner but starting with a previously described pBC SK(−) vector ([42]). The final plasmids were grown in E. coli DH10B cells and purified.
# (§5) Modal broth microdilution MICs (or median broth microdilution MICs where appropriate) were determined in accordance with Clinical and Laboratory Standards Institute (CLSI) M07 guidelines ([43]). Isogenic E. coli DH10B cells expressing the abovementioned plasmid-encoded PDC constructs were used. […] CLSI quality control strains Escherichia coli NCTC 13353, E. coli ATCC 35218, and Klebsiella pneumoniae ATCC 700603 were used during testing ([24]).
# [3] = test system: E. coli DH10B/pTU626 (PDC-89); assay: Broth microdilution MIC, isogenic E. coli expressing PDC-89; assay type: cell-based; details: Escherichia coli
# Protocol: as §4, §5
# [4] = test system: E. coli DH10B/pTU625 (PDC-88); assay: Broth microdilution MIC, isogenic E. coli expressing PDC-88; assay type: cell-based, Escherichia coli; details: Escherichia coli
# Protocol: as §4, §5
# [5] = test system: E. coli DH10B/pTU627 (PDC-90); assay: Broth microdilution MIC, isogenic E. coli expressing PDC-90; assay type: cell-based; details: Escherichia coli
# Protocol: as §4, §5
# [6] = test system: K. pneumoniae ATCC 700603; assay: Broth microdilution MIC, CLSI quality control strain; assay type: cell-based; details: Klebsiella pneumoniae
# Protocol: as §5
# [7] = test system: E. coli DH10B/pTU629 (PDC-92); assay: Broth microdilution MIC, isogenic E. coli expressing PDC-92; assay type: cell-based; details: Escherichia coli
# Protocol: as §4, §5
# [8] = test system: E. coli DH10B/pTU606 (PDC-1); assay: Broth microdilution MIC, isogenic E. coli expressing PDC-1; assay type: cell-based; details: Escherichia coli
# Protocol: as §4, §5
# [9] = test system: E. coli DH10B/pTU609 (PDC-3); assay: Broth microdilution MIC, isogenic E. coli expressing PDC-3; assay type: cell-based; details: Escherichia coli
# Protocol: as §4, §5
# PDC-88 [10] = assay: Spectrophotometric β-lactam hydrolysis (progress curves, steady-state kinetics) by PDC-88; assay type: biochemical, Pseudomonas aeruginosa; details: over 900 s
# Protocol: In order to determine the impact of the PDC-88 variant on hydrolysis, we determined hydrolysis progress curves for PDC-3, PDC-88, and a strongly hydrolyzing comparator (NDM-1 or PER-2) for cefepime (FEP, Fig. 3A), ceftazidime (CAZ, Fig. 3B), ceftolozane (TOL, Fig. 3C), and aztreonam (ATM, Fig. 3D).
# β-Lactamase kinetic and inhibitor constants were determined using an Agilent 8453 UV-Visible Spectrophotometer to record progress curves and determine initial rates and other kinetic parameters as appropriate. Reactions were carried out in 1× phosphate-buffered saline (PBS) (pH 7.4) at room temperature in a 0.2 cm path-length quartz cuvette (Hellma Analytics). Reads were taken every 10 s to minimize UV-mediated background hydrolysis.
# The extinction coefficients used were: nitrocefin, Δε482 = 17,400 M^−1 cm^−1, and cefepime, Δε260 = −10,000 M^−1 cm^−1.
# The kinetic constants KM and Vmax were determined using a nonlinear least-squares regression of the data to the Henri-Michaelis-Menten equation (equation 1) in Origin Version 2020b (OriginLab, Northampton, MA), where v is the velocity of the reaction; Vmax is the theoretical maximum velocity; KM is the Michaelis constant; and [S] is the substrate concentration: […]
# [11] = test system: E. coli DH10B/pTU501 (vector); assay: Broth microdilution MIC, isogenic E. coli empty vector control; assay type: cell-based; details: Escherichia coli
# Protocol: as §4, §5
# E. coli ATCC 35218 = assay: Broth microdilution MIC, CLSI quality control strain; assay type: cell-based; details: Escherichia coli, ATCC35218, read-out: MIC TOL TZB
# Protocol: as §5
# [12] = 60 min incubation, starting molar ratio 1:2
compound,measurement,setting,value
"C[C@H]1[C@H](NC(=O)/C(=N\OC(C)(C)C(=O)O)c2csc(N)n2)C(=O)N1S(=O)(=O)O [ATM, aztreonam]",apo enzyme after incubation,PDC-88 [1]; [12],no apo enzyme present
same,acyl-enzyme complex formation and deacylation,PDC-88 [1],quickly formed acyl-enzyme complexes
same,apo enzyme after incubation,PDC-3; [12],less than 10%
same,acyl-enzyme complex formation and deacylation,PDC-3,quickly formed acyl-enzyme complexes
same,hydrolysis by NDM-1,NDM-1,does not hydrolyze
"CC(C)(O/N=C(\C(=O)N[C@@H]1C(=O)N2C(C(=O)[O-])=C(C[n+]3ccccc3)CS[C@H]12)c1csc(N)n1)C(=O)O [CAZ, ceftazidime]",MIC,[2]; read-out: MIC CAZ AVI,1 mg/L
same,MIC,"[2]; E. coli DH10B/pTU628 (PDC-91), read-out: MIC CAZ Alone",128 mg/L
same,MIC,[3]; read-out: MIC CAZ AVI,1 mg/L
same,MIC,"[3]; E. coli DH10B/pTU626 (PDC-89), read-out: MIC CAZ Alone",128 mg/L
same,acyl-enzyme complex formation and deacylation,PDC-88 [1],formed acyl-enzyme complexes with CAZ that deacylated slowly
same,MIC,[4]; read-out: MIC CAZ AVI,1 mg/L
same,MIC,"[4]; E. coli DH10B/pTU625 (PDC-88), read-out: MIC CAZ Alone",128 mg/L
same,acyl-enzyme complex formation and deacylation,PDC-3,formed acyl-enzyme complexes with CAZ that deacylated slowly
same,MIC,[5]; read-out: MIC CAZ AVI,2 mg/L
same,MIC,"[5]; E. coli DH10B/pTU627 (PDC-90), read-out: MIC CAZ Alone",> 128 mg/L
same,MIC,"[6]; ATCC700603, read-out: MIC CAZ AVI",1 mg/L
same,MIC,"[6]; ATCC700603, read-out: MIC CAZ Alone",32 mg/L
same,MIC,[7]; read-out: MIC CAZ AVI,1 mg/L
same,MIC,"[7]; E. coli DH10B/pTU629 (PDC-92), read-out: MIC CAZ Alone",> 128 mg/L
same,MIC,[8]; read-out: MIC CAZ AVI,1 mg/L
same,MIC,"[8]; E. coli DH10B/pTU606 (PDC-1), read-out: MIC CAZ Alone",64 mg/L
same,MIC,[9]; read-out: MIC CAZ AVI,1 mg/L
same,MIC,"[9]; E. coli DH10B/pTU609 (PDC-3), read-out: MIC CAZ Alone",64 mg/L
same,difference between hydrolysis progress curves of PDC-3 and PDC-88,PDC-88 [10],no appreciable difference
same,MIC,[11]; read-out: MIC CAZ AVI,0.5 mg/L
same,MIC,[11]; read-out: MIC CAZ Alone,0.5 mg/L
"Cn1c(N)c(NC(=O)NCCN)c[n+]1CC1=C(C(=O)O)N2C(=O)[C@@H](NC(=O)/C(=N\OC(C)(C)C(=O)[O-])c3nsc(N)n3)[C@H]2SC1 [TOL, ceftolozane]",MIC,[2]; read-out: MIC TOL TZB,16 mg/L
same,MIC,"[2]; E. coli DH10B/pTU628 (PDC-91), read-out: MIC TOL Alone",16 mg/L
same,MIC,[3]; read-out: MIC TOL TZB,8 mg/L
same,MIC,"[3]; E. coli DH10B/pTU626 (PDC-89), read-out: MIC TOL Alone",16 mg/L
same,acyl-enzyme complex formation and deacylation,PDC-88 [1],formed an acyl-enzyme complex that deacylated at a moderate rate
same,MIC,[4]; read-out: MIC TOL TZB,8 mg/L
same,MIC,"[4]; E. coli DH10B/pTU625 (PDC-88), read-out: MIC TOL Alone",16 mg/L
same,acyl-enzyme complex formation and deacylation,PDC-3,did not form a detectable acyl-enzyme complex
same,MIC,[5]; read-out: MIC TOL TZB,16 mg/L
same,MIC,"[5]; E. coli DH10B/pTU627 (PDC-90), read-out: MIC TOL Alone",16 mg/L
same,MIC,E. coli ATCC 35218,0.25 mg/L
same,MIC,[7]; read-out: MIC TOL TZB,8 mg/L
same,MIC,"[7]; E. coli DH10B/pTU629 (PDC-92), read-out: MIC TOL Alone",16 mg/L
same,MIC,[8]; read-out: MIC TOL TZB,4 mg/L
same,MIC,"[8]; E. coli DH10B/pTU606 (PDC-1), read-out: MIC TOL Alone",4 mg/L
same,MIC,[9]; read-out: MIC TOL TZB,4 mg/L
same,MIC,"[9]; E. coli DH10B/pTU609 (PDC-3), read-out: MIC TOL Alone",4 mg/L
same,difference between hydrolysis progress curves of PDC-3 and PDC-88,PDC-88 [10],no appreciable difference
same,MIC,[11]; read-out: MIC TOL Alone,0.5 mg/L
same,MIC,[11]; read-out: MIC TOL TZB,0.5 mg/L
